Patent US9505796B2, “Phosphorylated A2A receptor agonists” (Crozet Medical GMBH, priority 2006, dated 2016)

Columns and labels:
[1] = test system: surface protein expression of VCAM-1 in aortic ECs; test: VCAM-1 surface protein expression in aortic ECs (flow cytometry); format: cell-based, mouse; settings: ATL-146e 10 μM for 6 hours
Protocol: Mouse aortal ECs were cultured as described. Six mL of type I rat tail collagen (4 mg/mL) combined with 0.1 M NaOH, 3.5 mL 3×DMEM and 5.25 mL of 1×DMEM supplemented with 30% FCS was aliquoted into a 24 well plate, allowed to gel at 37° C. for 1 hour and equilibrated overnight in complete EC medium: RPMI-1640 supplemented with 20% heat inactivated FCS, 2-mercaptoethanol (4 L/L), gentamicin (10 g/mL) and EC growth supplement (50 g/mL, BD Biosciences). Aortas from CD73^−/− or WT mice cut into circular rings were opened longitudinally and placed luminal side down onto the collagen gel. After 2 days, complete medium was added and changed every third day. After 10 days, aortic segments were removed and the collagen gel digested with 0.3% collagenase H. Then, ECs were grown in complete medium and used between passages 2-8. Some ECs were treated with ATL-146e (10 μM) for 6 hours. […]
For immunofluorescence, confluent ECs on glass chamber slides were fixed in methanol, permeabilized with 0.5% triton and reacted with p65 (C-20, Santa Cruz) or isotype control and FITC-conjugated secondary Ab (Boehringer Mannheim). […] After incubation for 30 min at RT, primary Ab binding was detected using a FITCconjugated secondary Ab (Boehringer Mannheim) and analyzed in a FACSCalibur (BD Biosciences). Specific mean fluorescence intensity was determined by subtracting isotype control staining.

[2] = test system: wire-injured carotid arteries of WT and CD73−/− mice; test: Mouse model of carotid artery injury, neointima formation; format: in vivo; settings: 4 weeks after injury, continuous infusion 0.004 μg/kg per minute
Excerpt: Male, 6-12 week old CD73^−/− or WT NMRI mice (n=6-8) were left untreated or fed an atherogenic diet containing 21% fat for one week before and up to 4 weeks after injury. Transluminal carotid artery injury was induced by 4 rotational passes of a 0.36-mm guide-wire. After 6 days of diet and one day before carotid injury, some mice (n=10 per group) were anesthetized and underwent implantation of a primed, 28-day osmotic pump (model 2004, Alza Corp) placed subcutaneously via transverse midscapular incision for continuous treatment with ATL (0.004 μg/kg per minute; 200 μL of 1% dimethyl sulfoxide in saline; kind gift from G. W. Sullivan and J. Linden, University of Virginia). Arteries were harvested by in situ perfusion fixation with 4% paraformaldehyde and embedded in paraffin. […]
Neointimal and medial areas were quantified in serial 5 μm sections of common carotid arteries within a standardized distance from the bifurcation (50-250 μm) stained with Movat pentachrome Areas within the external elastic lamina (EEL), internal elastic lamina (TEL) and lumen (L) were determined by computer-assisted planimetry (Diskus software, Hilgers). […] The relative content of macrophages in the neointima was determined in serial sections of the LCA within 300 μm from the bifurcation (6 per mouse, each 50 μm apart). […] Images were recorded using a Leica DMLB microscope and CCD camera. […]

[3] = test system: arrest of Mono Mac 6 cells on aortic ECs; test: Adhesion assay: monocyte arrest on ECs under laminar flow; format: cell-based, mouse; settings: ATL-146e 10 μM for 6 hours
Protocol: (§1) Mouse aortal ECs were cultured as described. Six mL of type I rat tail collagen (4 mg/mL) combined with 0.1 M NaOH, 3.5 mL 3×DMEM and 5.25 mL of 1×DMEM supplemented with 30% FCS was aliquoted into a 24 well plate, allowed to gel at 37° C. for 1 hour and equilibrated overnight in complete EC medium: RPMI-1640 supplemented with 20% heat inactivated FCS, 2-mercaptoethanol (4 L/L), gentamicin (10 g/mL) and EC growth supplement (50 g/mL, BD Biosciences). Aortas from CD73^−/− or WT mice cut into circular rings were opened longitudinally and placed luminal side down onto the collagen gel. After 2 days, complete medium was added and changed every third day. After 10 days, aortic segments were removed and the collagen gel digested with 0.3% collagenase H. Then, ECs were grown in complete medium and used between passages 2-8. Some ECs were treated with ATL-146e (10 μM) for 6 hours. Mono Mac 6 cells were maintained as described.
Laminar flow assays were performed as described. ECs were perfused with Mono Mac 6 cells (0.5×10^6/mL) pre-treated with or without anti-VLA-4 (10 g/mL, Immunotech) at 1.5 dyn/cm^2. The numbers of firmly arrested and rolling cells were quantified after 4 min in multiple (>10) fields by analyzing images recorded by video microscopy, and expressed as cells/mm^2

[4] = test system: VCAM-1 mRNA expression in aortic ECs; test: VCAM-1 mRNA expression in cultured aortic ECs (PCR); format: cell-based, mouse; settings: CD73−/− ECs, ATL-146e 10 μM for 6 hours
Protocol: as §1
RNA was prepared using the RNAqzeous-Micro isolation kit (Ambion) and RNeasy Mini kit (Qiagen) and reverse-transcribed into cDNA using Mo-MLV RT (Invitrogen).

## CCNC(=O)[C@H]1O[C@@H](n2cnc3c(N)nc(C#CCC4CCC(C(=O)OC)CC4)nc32)[C@H](O)[C@@H]1O (stereo partly shown) [ATL-146e]
[1]; CD73−/− ECs
  surface protein expression of VCAM-1: reversed the increased surface protein expression of VCAM-1
[1]; WT ECs
  surface protein expression of VCAM-1: slightly diminished its expression
[2]; CD73−/− mice, vs control CD73−/− mice
  neointimal hyperplasia in carotid arteries: completely prevented neointimal hyperplasia
[2]; WT mice, vs control WT mice
  neointima formation in carotid arteries: significantly inhibited neointima formation
[3]; CD73−/− ECs
  monocyte arrest: inhibition of the monocyte arrest
[3]; WT ECs
  monocyte arrest: not affected
[4]
  VCAM-1 mRNA expression: reduced the elevated VCAM-1 mRNA expression
